Test results reported in article PMC9405123, “Design, Synthesis and Mechanistic Studies of Novel Isatin-Pyrazole Hydrazone Conjugates as Selective and Potent Bacterial MetAP Inhibitors” (Antibiotics, 2022).
Converted amounts (≈) assume the structure as drawn. Read-outs that look alike come from different tables or passages of the source.

Tests used:
B. subtilis [1] = assay: Minimum inhibitory concentration (broth dilution); assay type: cell-based; conditions: Bacillus subtilis, alone
B. subtilis [2] = assay: Growth inhibition screening (broth dilution); assay type: cell-based, Bacillus subtilis
Method: (§1) In vitro screening of the compounds (PS1–14) was performed to assess the antibacterial activity against three Gram-positive (Staphylococcus aureus, Enterococcus faecalis and Bacillus subtilis,) and three Gram-negative (Pseudomonas aeruginosa, Klebsiella pneumonia and Escherichia coli) bacterial strains using the standard NCCLS broth dilution assay. The study’s standard drugs were ciprofloxacin (CIP) and ampicillin (AMP). Compounds were dissolved in a polar solvent (DMSO) and distributed into a 96-well plate in 200 µL of nutrient broth medium, with a final concentration of the compounds […] in each well. The bacterial cells (about 2.5 × 10^5 cells/mL) were inoculated into each well and incubated at 37 °C overnight. After incubation, the growth was measured by turbidity of the culture at 590 nm by spectrophotometer.

K. pneumoniae [3] = assay: Minimum inhibitory concentration (broth dilution); assay type: cell-based, Klebsiella pneumonia; conditions: Klebsiella pneumoniae, alone, read-out: MIC
S. aureus [4] = assay: Minimum inhibitory concentration (broth dilution); assay type: cell-based; conditions: Staphylococcus aureus, alone
K. pneumoniae [5] = assay: Growth inhibition screening (broth dilution); assay type: cell-based, Klebsiella pneumonia; conditions: for inhibition at 250 µg/mL: Klebsiella pneumoniae
Method: as §1

E. coli [6] = assay: Minimum bactericidal concentration; assay type: cell-based, Escherichia coli; conditions: for MBC: Escherichia coli
E. coli [7] = assay: Minimum inhibitory concentration (broth dilution); assay type: cell-based, Escherichia coli; conditions: Escherichia coli, alone, read-out: MIC
S. aureus [8] = assay: Minimum bactericidal concentration; assay type: cell-based, Staphylococcus aureus; conditions: for MBC: Staphylococcus aureus
MtMetAP1c = biological target: T1, MtMetAP1c (Mycobacterium tuberculosis, UniProt P9WK19); assay: MetAP enzyme inhibition, Morrison Ki (Met-AMC fluorescence); assay type: biochemical, M. tuberculosis; conditions: Morrison Ki method
T1 construct: made in house
T1 sequence (P9WK19 whole entry): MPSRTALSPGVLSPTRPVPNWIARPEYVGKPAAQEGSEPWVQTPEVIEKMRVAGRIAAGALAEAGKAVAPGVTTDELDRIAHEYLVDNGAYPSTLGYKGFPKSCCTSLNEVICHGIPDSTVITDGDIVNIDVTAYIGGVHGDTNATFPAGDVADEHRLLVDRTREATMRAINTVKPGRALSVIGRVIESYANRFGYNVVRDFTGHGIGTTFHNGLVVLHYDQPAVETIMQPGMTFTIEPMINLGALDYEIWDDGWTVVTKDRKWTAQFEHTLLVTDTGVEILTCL
Method: MetAP appears to serve a vital role in the co- or post-translational modification of proteins, making it essential for bacterial cell metabolism and survival. In this study, all enzymes, which were used for this study, including MtMetAP1c (M. tuberculosis), EfMetAP1a (E. faecalis), SpMetAP1a (S. pneumoniae) and HsMetAP1b (H. sapiens) enzymes, were expressed and purified in our lab as previously reported. All compounds prepared 10 mM stocks in DMSO and were used for enzyme inhibition studies. The concentration of each enzyme is adjusted such that they have similar reaction rates (HsMetAp1b, 1 µM; SpMetAP1a, 5 µM; EfMetAP1a, 1 µM; MtMetAP1c, 1 µM;) as reported earlier. All assays were performed in […] reaction containing 50 mM HEPES (pH 7.5 for SpMetAP1a and HsMetAP1b; 8.0 for EfMetAP1a, MtMetAP1c, […]), 150 mM NaCl, and CoCl2 (three molar equivalents of corresponding enzymes). The reaction was started by adding 50 μM L-Methionine 7-amido-4-methyl coumarin (Met-AMC) and continuously monitoring the fluorescence of released 7-amino-4-methyl coumarin (AMC) (380 nm excitation and 460 nm emission) in a microplate multimode reader (TECAN, Austria). The maximum percentage of inhibition against enzymes is calculated at […] compound concentration. […] The Ki values were determined according to the Morrison method using three different concentrations of substrates and ten different concentrations of the inhibitor. All experiments were performed in triplicate. GraphPad Prism version 8.0.0 (San Diego, CA, USA) was used to determine all the kinetic parameters.

EfMetAP1a = EfMetAP1a (Enterococcus faecalis, UniProt Q832M5); assay: as above; assay type: biochemical; conditions: Morrison Ki method
Sequence of EfMetAP1a (Q832M5 entry or part of it): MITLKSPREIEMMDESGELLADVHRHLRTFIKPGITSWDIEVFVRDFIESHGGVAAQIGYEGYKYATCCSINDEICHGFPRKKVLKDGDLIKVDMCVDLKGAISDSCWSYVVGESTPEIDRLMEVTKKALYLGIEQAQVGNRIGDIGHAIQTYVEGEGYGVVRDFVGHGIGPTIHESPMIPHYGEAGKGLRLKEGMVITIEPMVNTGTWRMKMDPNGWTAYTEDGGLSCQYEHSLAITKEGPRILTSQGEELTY

B. subtilis [9] = assay: Combination study with AMP or CIP
S. aureus [10] = assay: Combination study with AMP or CIP
P. aeruginosa [11] = assay: Combination study with AMP or CIP
S. aureus [12] = assay: Growth inhibition screening (broth dilution); assay type: cell-based, Staphylococcus aureus; conditions: for inhibition at 250 µg/mL: Staphylococcus aureus
Method: as §1

P. aeruginosa [13] = assay: Minimum bactericidal concentration; assay type: cell-based, Pseudomonas aeruginosa; conditions: for MBC: Pseudomonas aeruginosa
E. coli [14] = assay: Combination study with AMP or CIP
E. coli [15] = assay: Growth inhibition screening (broth dilution); assay type: cell-based, Escherichia coli
Method: as §1

HsMetAP1b = biological target: T2, HsMetAP1b (Homo sapiens, UniProt P53582); assay: MetAP enzyme inhibition, Morrison Ki (Met-AMC fluorescence); assay type: biochemical, H. sapiens; conditions: Morrison Ki method
T2 construct: made in house

B. subtilis [16] = assay: Minimum bactericidal concentration; assay type: cell-based, Bacillus subtilis; conditions: for MBC: Bacillus subtilis
P. aeruginosa [17] = assay: Minimum inhibitory concentration (broth dilution); assay type: cell-based; conditions: Pseudomonas aeruginosa, alone
E. faecalis [18] = assay: Minimum bactericidal concentration; assay type: cell-based, Enterococcus faecalis; conditions: for MBC: Enterococcus faecalis
E. faecalis [19] = assay: Combination study with AMP or CIP
P. aeruginosa [20] = assay: Growth inhibition screening (broth dilution); assay type: cell-based, Pseudomonas aeruginosa
Method: as §1

SpMetAP1a = SpMetAP1a (Streptococcus pneumoniae, UniProt Q8DPV1); assay: MetAP enzyme inhibition, Morrison Ki (Met-AMC fluorescence); assay type: biochemical; conditions: Morrison Ki method
Sequence of SpMetAP1a (Q8DPV1 entry or part of it): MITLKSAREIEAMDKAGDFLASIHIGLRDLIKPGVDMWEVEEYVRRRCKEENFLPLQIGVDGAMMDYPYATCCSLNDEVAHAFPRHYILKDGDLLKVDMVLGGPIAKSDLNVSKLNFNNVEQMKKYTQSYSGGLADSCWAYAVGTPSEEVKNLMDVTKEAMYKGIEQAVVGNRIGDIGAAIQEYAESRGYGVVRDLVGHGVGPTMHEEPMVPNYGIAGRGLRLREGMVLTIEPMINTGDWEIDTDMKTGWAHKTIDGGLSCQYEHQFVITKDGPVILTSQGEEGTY

E. faecalis [21] = assay: Growth inhibition screening (broth dilution); assay type: cell-based, Enterococcus faecalis; conditions: for inhibition at 250 µg/mL: Enterococcus faecalis
Method: as §1

E. faecalis [22] = assay: Minimum inhibitory concentration (broth dilution); assay type: cell-based; conditions: Enterococcus faecalis, alone
K. pneumoniae [23] = assay: Minimum bactericidal concentration; assay type: cell-based, Klebsiella pneumonia; conditions: for MBC: Klebsiella pneumoniae
K. pneumoniae [24] = assay: Combination study with AMP or CIP

## O=C1Nc2cc(Cl)c(F)cc2/C1=N\NC(=O)c1cc(-c2cccc(Br)c2)n[nH]1 [PS6, (E)-3-(3-Bromophenyl)-N′-(6-Chloro-5-Fluoro-2-Oxoindolin-3-Ylidene)-1H-Pyrazole-5-Carbohydrazide]
B. subtilis [1]
  MIC: 8 mg/L (≈ 17.3 µM)
B. subtilis [2]
  % Growth Inhibition at 250 µg/mL: more than 70%
B. subtilis [2]; listed as C00006
  % Growth Inhibition at 250 µg/mL: 100%
K. pneumoniae [3]
  MIC: 64 mg/L (≈ 138 µM)
S. aureus [4]
  MIC: 16 mg/L (≈ 34.6 µM)
K. pneumoniae [5]
  inhibition at 250 µg/mL: > 70%
K. pneumoniae [5]; listed as C00006
  % Growth Inhibition at 250 µg/mL: 80%
other
  melting point: 191 to 194 °C
E. coli [6]
  MBC/MIC Ratio (R*): 8
  MBC: 256 mg/L (≈ 553 µM)
E. coli [7]
  MIC: 32 mg/L (≈ 69.2 µM)
S. aureus [8]
  MBC/MIC Ratio (R*): 32
  MBC: 512 mg/L (≈ 1110 µM)
MtMetAP1c
  Ki: 0.74 ± 0.06 µM
EfMetAP1a
  Ki: 1.65 ± 0.31 µM
B. subtilis [9]; combination PS6 + AMP
  MIC in Combination: 2 mg/L
B. subtilis [9]; combination PS6 + CIP
  MIC in Combination: 8 mg/L
B. subtilis [9]; combination with AMP
  FICI: 0.75
B. subtilis [9]; combination with CIP
  FICI: 1.06
  Mode of Interaction: Indifferent (in between 0.5 and 4)
S. aureus [10]; combination PS6 + AMP
  MIC in Combination: 1 mg/L
S. aureus [10]; combination PS6 + CIP
  MIC in Combination: 8 mg/L
S. aureus [10]; combination with AMP
  FICI: 0.31
S. aureus [10]; combination with CIP
  FICI: 1
  Mode of Interaction: Indifferent (in between 0.5 and 4)
P. aeruginosa [11]; combination PS6 + AMP
  MIC in Combination: 4 mg/L
P. aeruginosa [11]; combination PS6 + CIP
  MIC in Combination: 4 mg/L
P. aeruginosa [11]; combination with AMP
  FICI: 0.25
P. aeruginosa [11]; combination with CIP
  FICI: 0.25
  Mode of Interaction: Synergistic (FICI value is less than or equal to 0.5)
S. aureus [12]
  inhibition at 250 µg/mL: 61%
P. aeruginosa [13]
  MBC/MIC Ratio (R*): 8
  MBC: 256 mg/L (≈ 553 µM)
E. coli [14]; combination PS6 + AMP
  MIC in Combination: 4 mg/L
E. coli [14]; combination PS6 + CIP
  MIC in Combination: 8 mg/L
E. coli [14]; combination with AMP
  FICI: 0.25
E. coli [14]; combination with CIP
  FICI: 0.31
E. coli [15]
  % Growth Inhibition at 250 µg/mL: more than 70%
E. coli [15]; listed as C00006
  % Growth Inhibition at 250 µg/mL: 97%
HsMetAP1b
  Ki: 172 ± 4.8 µM
B. subtilis [16]
  MBC/MIC Ratio (R*): 2
  MBC: 16 mg/L (≈ 34.6 µM)
P. aeruginosa [17]
  MIC: 32 mg/L (≈ 69.2 µM)
E. faecalis [18]
  MBC/MIC Ratio (R*): 2
  MBC: 32 mg/L (≈ 69.2 µM)
E. faecalis [19]; combination PS6 + AMP
  MIC in Combination: 1 mg/L
E. faecalis [19]; combination PS6 + CIP
  MIC in Combination: 4 mg/L
E. faecalis [19]; combination with AMP
  FICI: 0.09
E. faecalis [19]; combination with CIP
  FICI: 0.31
P. aeruginosa [20]
  % Growth Inhibition at 250 µg/mL: more than 70%
P. aeruginosa [20]; listed as C00006
  % Growth Inhibition at 250 µg/mL: 100%
SpMetAP1a
  Ki: 2.55 ± 0.11 µM
E. faecalis [21]
  inhibition at 250 µg/mL: > 70%
E. faecalis [21]; listed as C00006
  % Growth Inhibition at 250 µg/mL: 73%
E. faecalis [22]
  MIC: 16 mg/L (≈ 34.6 µM)
K. pneumoniae [23]
  MBC/MIC Ratio (R*): 2
  MBC: 128 mg/L (≈ 277 µM)
K. pneumoniae [24]; combination PS6 + AMP
  MIC in Combination: 4 mg/L
K. pneumoniae [24]; combination PS6 + CIP
  MIC in Combination: 8 mg/L
K. pneumoniae [24]; combination with AMP
  FICI: 0.18
K. pneumoniae [24]; combination with CIP
  FICI: 0.62
  Mode of Interaction: Indifferent (in between 0.5 and 4)

## COc1ccc2c(c1)/C(=N\NC(=O)c1cc(-c3cccc(Br)c3)n[nH]1)C(=O)N2 [PS11, (E)-3-(3-Bromophenyl)-N′-(5-Methoxy-2-Oxoindolin-3-Ylidene)-1H-Pyrazole-5-Carbohydrazide]
B. subtilis [1]
  MIC: > 256 mg/L
B. subtilis [2]; Bacillus subtilis
  inhibition at 250 µg/mL: ≥ 94%
B. subtilis [2]; listed as C00011
  % Growth Inhibition at 250 µg/mL: 100%
K. pneumoniae [3]
  MIC: 32 mg/L (≈ 72.7 µM)
S. aureus [4]
  MIC: 128 mg/L (≈ 291 µM)
K. pneumoniae [5]
  inhibition at 250 µg/mL: ≥ 94%
K. pneumoniae [5]; listed as C00011
  % Growth Inhibition at 250 µg/mL: 95%
other
  melting point: 245 to 248 °C
E. coli [6]
  MBC/MIC Ratio (R*): 2
  MBC: 256 mg/L (≈ 581 µM)
E. coli [7]
  MIC: 128 mg/L (≈ 291 µM)
S. aureus [8]
  MBC/MIC Ratio (R*): >4
  MBC: > 512 mg/L
MtMetAP1c
  Ki: 1.61 ± 0.25 µM
EfMetAP1a
  Ki: 2.49 ± 0.31 µM
S. aureus [12]
  inhibition at 250 µg/mL: ≥ 94%
S. aureus [12]; listed as C00011
  % Growth Inhibition at 250 µg/mL: 98%
P. aeruginosa [13]
  MBC/MIC Ratio (R*): 4
  MBC: 128 mg/L (≈ 291 µM)
E. coli [15]; Escherichia coli
  inhibition at 250 µg/mL: ≥ 94%
E. coli [15]; listed as C00011
  % Growth Inhibition at 250 µg/mL: 97%
HsMetAP1b
  Ki: 15.2 ± 3.2 µM
B. subtilis [16]
  MBC/MIC Ratio (R*): 2
  MBC: 512 mg/L (≈ 1160 µM)
P. aeruginosa [17]
  MIC: 32 mg/L (≈ 72.7 µM)
E. faecalis [18]
  MBC/MIC Ratio (R*): 1
  MBC: 32 mg/L (≈ 72.7 µM)
P. aeruginosa [20]; Pseudomonas aeruginosa
  inhibition at 250 µg/mL: ≥ 94%
P. aeruginosa [20]; listed as C00011
  % Growth Inhibition at 250 µg/mL: 96%
SpMetAP1a
  Ki: 1.36 ± 0.17 µM
E. faecalis [21]
  inhibition at 250 µg/mL: ≥ 94%
E. faecalis [21]; listed as C00011
  % Growth Inhibition at 250 µg/mL: 100%
E. faecalis [22]
  MIC: 32 mg/L (≈ 72.7 µM)
K. pneumoniae [23]
  MBC/MIC Ratio (R*): 1
  MBC: 32 mg/L (≈ 72.7 µM)
